Source: BindingDB's records for doi:10.1016/j.bmcl.2017.12.053 (n/a, 2018)

What was measured:
[1] = Inhibition of 20s immunoproteasome beta2 trypsin-like activity in human spleen using Boc-Leu-Arg-Arg-AMC as substrate after 10 mins by fluorescence assay
[2] = Inhibition of 20s constitutive proteasome beta1 caspase-like activity in human erythrocytes using Z-Leu-Leu-Glu-AMC as substrate after 10 mins by fluorescence assay
[3] = Inhibition of 20s immunoproteasome beta5 chymotrypsin-like activity in human spleen using Suc-Leu-Leu-Val-Tyr-AMC as substrate after 10 mins by fluorescence assay
[4] = Inhibition of 20s constitutive proteasome beta2 trypsin-like activity in human erythrocytes using Boc-Leu-Arg-Arg-AMC as substrate after 10 mins by fluorescence assay
[5] = Inhibition of 20s immunoproteasome beta1 caspase-like activity in human spleen using Ac-Pro-Ala-Leu-AMC as substrate after 10 mins by fluorescence assay

| SMILES | Ki [1] [µM] | Ki [2] [µM] | Ki [3] [µM] | Ki [4] [µM] | Ki [5] [µM] |
| --- | --- | --- | --- | --- | --- |
| O=C1/C(=C/c2ccc(Oc3ccccc3)cc2)NC(=S)N1c1cccc2ccccc12 | 5.57 | 9.64 | – | – | – |
| COc1ccc(/C=C2\NC(=S)N(c3ccccc3)C2=O)cc1 | – | – | 10.9 | – | – |
| CSc1ccc(/C=C2\NC(=S)N(c3ccccc3)C2=O)cc1 | 4.38 | – | – | 20 | – |
| COc1ccc(/C=C2\NC(=S)N(c3ccccc3)C2=O)cc1OC | – | – | 2.01 | – | 2.64 |
| COc1ccc(/C=C2\NC(=S)N(c3ccccc3)C2=O)cc1O | – | – | 2.35 | – | 6.53 |
| COc1cc(/C=C2\NC(=S)N(c3ccccc3)C2=O)ccc1O | 6.71 | – | 11.5 | – | – |
